In US20130303564A1, “METHOD FOR TREATING A NEURODEGENERATIVE DISORDER” (RUSH UNIVERSITY MEDICAL CENTER, priority 2012, published 2013):

Assays:
[1] = system: primary mouse microglia; experiment: LPS-induced NO (nitrite) production in primary mouse microglia; format: cell-based
Protocol: Primary mouse microglia were treated with different concentrations of NaPB for 6 h followed by stimulation with LPS under serum-free condition. After 24 h of stimulation, concentrations of nitrite were measured in supernatants (A) and the level of iNOS protein was monitored in cells by Western blot (B). […] After 5 h of stimulation, the expression of iNOS mRNA was monitored by semi-quantitative RT-PCR (C). Cells preinctibated with different concentration of trichostatin A (TSA) and sodium butyrate (NaBu) for 6 h were stimulated with LPS for 24 h under serum-free condition followed by monitoring the level of nitrite in supernatants (p). […] Primary human astroglia isolated from fetal brain tissues were treated with different concentrations of NaPB for 6 h followed by stimulation with IL-1β under serum-free condition. After 48 h of stimulation, concentrations of nitrite (E) were measured in supernatants. Human astroglia plated at 70-80% confluence in 12-well plates were co-transfected with 0.25 μg of phiNOS(7.2)Luc and 12.5 ng of pRL-TK using the Lipofectamine-Plus (Invitrogen). Twenty-four h after transfection, cells received NaPB. After 6 h of incubation, cells were stimulated with IL-1β (20 ng/ml) for 12 h. Firefly (ff-Luc) and Renilla (r-Luc) luciferase activities were obtained by analyzing the total cell extract (F).
Activated microglia and astroglia are known to produce excessive amount of NO having the potential of damaging neurons in neurodegenerative disorders. We investigated the effect of NaPB on the expression of iNOS in microglia. LPS is a prototype inducer of various proinflammatory molecules in different cell types including mouse microglia. Therefore, primary mouse microglia preincubated with different doses of NaPB for 6 h were stimulated with LPS under serum-free condition. […] We used trichostatin A (TSA) and sodium butyrate (NaBu) for this purpose.
Isolation of Mouse Microglia: Microglia were isolated from mixed glial cultures. Briefly, on day 7-9, the mixed glial cultures were washed three times with Dulbecco's modified Eagle's medium/F-12 and subjected to shaking at 240 rpm for 2 h at 37° C. on a rotary shaker. The floating cells were washed and seeded on to plastic tissue culture flasks and incubated at 37° C. for 1 h. The attached cells were seeded onto new plates for further studies. […] Mouse BV-2 microglial cells (kind gift from Virginia Bocchini of Universityof Perugia) were also maintained and induced as indicated above.

[2] = system: NF-κB; experiment: DNA-binding activity of NF-κB by EMSA in BV-2 microglial cells; format: cell-based, mouse; details: NaPB different concentrations, 6 h preincubation, LPS 1 h
Protocol: Activation of NF-κB was monitored by IκBαphosphorylation, DNA binding activity by EMSA and transcriptional activity by reporter assays.
Electrophoretic Mobility Shift Assay (EMSA): Nuclear extracts were prepared and EMSA was carried out. […] Six-micrograms of nuclear extract was incubated with binding buffer and with IR-labeled probe for 20 min. Subsequently, samples were separated on a 6% polyacrylamide gel in 0.25× TBE buffer (Tris borate-EDTA) and analyzed by Odyssey Infrared Imaging System (LI-COR Biosciences).

[3] = system: BV-2 microglial cells; experiment: Superoxide production in microglial cells; format: cell-based, mouse; details: 500 μM
From the text: Results represent three independent experiments.
Superoxide measurements: Superoxide production was detected by LumiMax™ Superoxide Anion Detection Kit (Stratagene) as described by us (30).

[4] = system: CD11b
Protocol: (§1) A) Mice were treated with NaPB (200 mg/kg body wt/d) from 3 h after the last injection of MPTP. Twenty-four h after the last injection of MPTP, ventral midbrain sections were immunostained for GFAP and CD11b. Results represent analyses of four nigral sections (two images per slide) from each of four mice. The mRNA expression GFAP and CD11b was analyzed by semi-quantitative RT-PCR (B) and quantitative real-time PCR (C).
(§2) Recently activation of glial cells is being considered as a pathological hallmark in PD and other neurodegenerative disorders. Increased expression of CD11b, the beta-integrin marker of microglia, represents microglial activation during neurodegenerative inflammation. Similarly, upon activation, astrocytes also express enhanced level of GFAP, which is considered as a marker protein for astrogliosis. We investigated if NaPB could attenuate MPTP-induced activation of glial cells in vivo in the nigra of mice.
(§3) Semi-quantitative RT-PCR analysis for proinflammatory molecules (iNOS, IL-1β and TNF-α) and glial cell markers: Total RNA was isolated from ventral midbrain using Ultraspec-II RNA reagent (Biotecx .Laboratories, Inc., Houston, Tex.) following manufacturer's protocol. To remove any contaminating genomic DNA, total RNA was digested with DNase. RT-PCR was carried out using a RT-PCR kit (Clontech., Mountain View, Calif.) and following primers.
(§4) Real-time PCR analysis: It was performed in the ABI-Prism7700 sequence detection system (Applied Biosystems, Foster City, Calif.) using TaqMan Universal Master mix and optimized concentrations of FAM-labeled probes and primers.

[5] = system: GFAP
Protocol: as §1, §2, §3, §4

[6] = system: RelA p65 at the mouse iNOS promoter; details: 0.5 mM, 6 h preincubation, LPS 2 h; proximal NF-κB binding site
Protocol: D) Cells preincubated with 0.5 mM NaPB for 6 h were stimulated with LPS for 2 h followed by monitoring the recruitment of RelA p65 to the mouse iNOS promoter by ChIP assay.
Therefore, next we examined the effect of NaPB on the recruitment of p65 to the proximal NF-κB binding site of the iNOS promoter.
Chromatin immunoprecipitation (CUP): ChIP assays were performed using a ChIP assay kit (Upstate Biotechnology, Lake Placid, N.Y.). Briefly, 2×10^6 microglial cells preincubated with gemfibrozil for 6 h were stimulated with LPS. After 3 h of stimulation, cells were fixed by adding formaldehyde (1% final concentration), and cross-linked adducts were resuspended and sonicated, resulting in an average chromatin fragment size of 400 bp. ChIP was performed on the cell lysate by overnight incubation at 4° C. with 2 μg of antibodies against p65 followed by incubation with protein G agarose (Santa Cruz Biotechnology) for 2 h. The beads were washed and incubated with elution buMr. To reverse the cross-linking and purify the DNA, precipitates were incubated in a 65° C. incubator overnight and digested with proteinase K. DNA samples were then purified, precipitated, and precipitates were washed with 75% ethanol, air-dried, and resuspended in TE buffer.

[7] = system: BV-2 microglial cells; details: 500 μM, 6 h, 1 μM MPP+ 15 min
Protocol: Cells were treated with 500 μM NaPB for 6 h followed by stimulation with 1 μM MPP+. At 15 min of stimulation, the generation of ROS was monitored by carboxy-H2DCFDA (A).
We examined if Parkinsonian toxin MPP+ induced the production of ROS from microglia and if NaPB could attenuate such ROS production. To monitor the generation of intracellular ROS in BV-2 microglial cells, we used a cell-permeant fluorescent probe.
Monitoring microglial ROS production: Cells, cultured in 8-well chamber slides, were treated with MPP+ under serum-free condition. At different time points of stimulation, supernatants were removed and cells were washed with Hank's buffered salt solution (HBSS) followed by addition of 100 μl of 25 μM carboxy-H2DCFDA to each well for 30 min of incubation. During the last five minutes of incubation, Hoechst 33342 was added to each well at a dilution of 1:1000 for staining nuclei. Cells were then washed with HBSS, mounted with DPX mounting media and observed under an Olympus 1×81 fluorescent microscope.

[8] = system: p21^rac; details: 500 μM preincubation
Protocol: D) Cells preincubated with 500 μM NaPB were stimulated with LPS. At different time points, activation of p21^ras and p21^rac was monitored. Results represent three independent experiments.

[9] = system: p21^rac; details: 200 mg/kg body wt/day gavage from 1 d prior to MPTP; 6 h after last MPTP
Protocol: A) Mice were treated with NaPB (200 mg/kg body wt/d.) via gavage from 1 d prior to MPTP injection. Six h after the last injection of MPTP, activation of p21^ras and p21^rac was monitored in ventral midbrain tissues. Experiment was repeated three times each time using two animal in each group. B) Bands from three different mice were quantified and activation of p21^ras and p21^rac is shown as percent of control, C) Mice were treated with NaPB (200 mg/kg body wt/d) from 3 h after the last injection of MPTP.
Animals and MPTP intoxications: Six- to eight-week old C57BL/6 mice were purchased from Harlan, Indianapolis, Ind. For acute MPTP intoxication, mice received four intraperitoneal (i.p.) injections of MPTP-HCl (18 mg/kg of free base; Sigma Chemical Co., St. Louis, Mo.) in saline at 2 hr intervals. Control animals received only saline.

[10] = system: chronic MPTP mouse model of PD; details: oral 100 mg/kg body wt/d from the third injection of MPTP/probenecid
Protocol: A) Six to eight week old male C57BL/6 mice received 10 injections of MPTP (s.c.; 25 mg/kg body weight) together with 10 injections of probenecid (i.p.; 250 mg/kg body weight) for 5 weeks. Control group of mice received only saline. One group of mice were treated with NaPB (100 mg/kg body weight/d) via gavage from the 3rd injection of MPTP/probenecid and continued for 1 week thereafter. Mice were tested for different motor tasks [horizontal activity (C), number of movements (D), rearing (E), and stereotypy (F)] one week after the last injection of MPTP followed by measuring the level of DA in striatum (B). Data are means+SEM of eight mice per group. ^ap<0.001 vs saline; ^bp<0.001 vs MPTP; p<0.05 vs saline; ^dp<0.05 vs MPTP.
We examined if NaPB was capable of protecting neurons in a chronic model (FIG. 10A). […] We initiated oral NaPB treatment (100 mg/kg body wt/d) from the third injection of MPTP/probenecid (FIG. 10A). […]
HPLC analysis of striatal dopamine and its metabolite levels: Striatal level of dopamine, DOPAC (3,4-dihydroxyphenylacetic acid) and HVA (homovanillic acid) was quantified. […] After pH adjustment and filtration, lOul of supernatant was injected onto an Eicompak SC-3ODS column (Complete Stand-Alone HPLC-ECD System EiCOMITTEC-500 from JM Science Inc., Grand Island, N.Y.) and analyzed following manufacturer's protocol.

[11] = 200 mg/kg body wt/d from 3 h after last MPTP, RT-PCR, real-time PCR
[12] = 200 mg/kg body wt/d oral from 3 h after last MPTP, 24 h, immunofluorescence

## sodium phenylbutyrate [NaPB]
[1]; 1 or 2 h preincubation (data not shown)
  inhibition of LPS-induced production of NO: not sufficient
[1]; higher concentrations (>200 μM), 6 h preincubation
  inhibition of LPS-induced production of NO: markedly suppressed
[1]; lower concentration (100 μM), 6 h preincubation
  inhibition of LPS-induced production of NO: not effective
[2]
  LPS-induced DNA-binding activity of NF-κB: inhibited
[3]; 6 h, 1 μM MPP+
  MPP+-induced production of superoxide: attenuated
[3]; 6 h preincubation, 10 min stimulation
  LPS-, TNF-α-, IL-1β-, gp120-, and Aβ-induced production of superoxide: knocked down
[4]; [11]
  MPTP-induced mRNA expression of CD11b in the nigra: suppressed
[4]; [12]
  CD11b protein expression in the nigra: inhibition
[5]; [11]
  MPTP-induced mRNA expression of GFAP in the nigra: suppressed
[5]; [12]
  GFAP protein expression in the nigra: inhibition
[6]
  recruitment of p65 to the iNOS promoter: inhibited
[7]
  MPP+-induced production of intracellular ROS: strongly inhibited
[8]
  LPS-induced activation of p21^rac: markedly suppressed
[9]
  MPTP-induced activation of p21^rac in the nigra: much decreased activation
[10]
  striatal DA: significantly protected
